Measurements published in US9249145B2, “Heterocyclic derivatives of pyrazol-4-yl-pyrrolo[2,3-d]pyrimidines as janus kinase inhibitors” (Incyte Holdings Corporation, priority 2009, dated 2016).
Where a name gives a salt, the structure may show the parent alone. Read-outs that look alike come from different tables or passages of the source.

Legend:
[1] = target: T1, Jak2 (a.a. 828-1132) (Homo sapiens, UniProt O60674); assay: In vitro JAK kinase assay (HTRF, phosphorylation of biotinylated peptide), JAK2; type: biochemical; conditions: 1 mM ATP
T1 construct: Jak2 (a.a. 828-1132); His tag (N); made in house; host or cells: insect cells (baculovirus)
Description: (§1) Compounds herein were tested for inhibitory activity of JAK targets according to the following in vitro assay described in Park et al., Analytical Biochemistry 1999, 269, 94-104. The catalytic domains of human JAK1 (a.a. 837-1142), Jak2 (a.a. 828-1132) and Jak3 (a.a. 781-1124) with an N-terminal His tag were expressed using baculovirus in insect cells and purified. The catalytic activity of JAK1, JAK2 or JAK3 was assayed by measuring the phosphorylation of a biotinylated peptide. The phosphorylated peptide was detected by homogenous time resolved fluorescence (HTRF). IC50s of compounds were measured for each kinase in the 40 microL reactions that contain the enzyme, ATP and 500 nM peptide in 50 mM Tris (pH 7.8) buffer with 100 mM NaCl, 5 mM DTT, and 0.1 mg/mL (0.01%) BSA. The ATP concentration in the reactions was 90 μM for Jak1, 30 μM for Jak2 and 3 μM for Jak3 for Km conditions. For the 1 mM IC50 measurements, ATP concentration in the reactions was 1 mM. Reactions were carried out at room temperature for 1 hr and then stopped with 20 μL 45 mM EDTA, 300 nM SA-APC, 6 nM Eu-Py20 in assay buffer (Perkin Elmer, Boston, Mass.). Binding to the Europium labeled antibody took place for 40 minutes and HTRF signal was measured on a Fusion plate reader (Perkin Elmer, Boston, Mass.). See Tables 1, 2, 3, and 4 for data related to compounds of the invention.

[2] = target: T2, human JAK1 (a.a. 837-1142) (Homo sapiens, UniProt P23458); assay: In vitro JAK kinase assay (HTRF, phosphorylation of biotinylated peptide), JAK1; type: biochemical; conditions: 1 mM ATP
T2 construct: The catalytic domains of human JAK1 (a.a. 837-1142); His tag (N); made in house; host or cells: insect cells (baculovirus)
Description: as §1

[3] = Examples 12-91, read-out: JAK2 IC50 (nM) @ 1 mM ATP
[4] = Examples 12-91, read-out: JAK1 IC50 (nM) @ 1 mM ATP
[5] = Examples 92-162, read-out: JAK2 IC50 (nM) @ 1 mM ATP
[6] = Examples 92-162, read-out: JAK1 IC50 (nM) @ 1 mM ATP

T2 sequence (P23458 849-1154): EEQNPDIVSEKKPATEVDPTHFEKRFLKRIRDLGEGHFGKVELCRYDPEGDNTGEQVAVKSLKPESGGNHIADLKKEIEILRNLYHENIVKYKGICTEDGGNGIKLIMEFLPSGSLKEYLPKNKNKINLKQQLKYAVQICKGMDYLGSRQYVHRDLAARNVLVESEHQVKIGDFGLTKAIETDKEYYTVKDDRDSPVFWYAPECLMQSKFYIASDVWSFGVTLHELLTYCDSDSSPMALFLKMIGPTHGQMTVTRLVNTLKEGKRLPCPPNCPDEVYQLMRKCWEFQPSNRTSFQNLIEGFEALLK
T1 sequence (O60674 828-1132): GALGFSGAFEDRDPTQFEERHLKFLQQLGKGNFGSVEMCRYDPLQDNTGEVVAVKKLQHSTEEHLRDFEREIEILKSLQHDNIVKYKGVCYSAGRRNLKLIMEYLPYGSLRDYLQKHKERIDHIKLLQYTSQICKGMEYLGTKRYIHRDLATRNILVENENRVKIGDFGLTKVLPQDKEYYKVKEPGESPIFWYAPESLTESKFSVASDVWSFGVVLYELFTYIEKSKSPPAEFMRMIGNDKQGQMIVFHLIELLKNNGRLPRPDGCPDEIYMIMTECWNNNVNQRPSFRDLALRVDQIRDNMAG

For “4-(4-(2-(4-(7H-pyrrolo[2,3-d]pyrimidin-4-yl)-1H-pyrazol-1-yl)-3-cyanopropyl)piperazine-1-carbonyl)-3-hydroxybenzonitrile [Example 77]”, the IC50 [1, 3] was 10 to 50 nM and the IC50 [2, 4] was < 10 nM.

With `N#CCC(CN1CCN(C(=O)c2ccc(C#N)cc2F)C(CO)C1)n1cc(-c2ncnc3[nH]ccc23)cn1` (mixture of isomers) [Example 160, 4-{[4-{3-cyano-2-[4-(7H-pyrrolo[2,3-d]pyrimidin-4-yl)-1H-pyrazol-1-yl]propyl}-2-(hydroxymethyl)piperazin-1-yl]carbonyl}-3-fluorobenzonitrile] the IC50 [1, 5] was > 100 nM and the IC50 [2, 6] was 20 to 50 nM.

With `C[C@@H]1CN(CC(CC#N)n2cc(-c3ncnc4[nH]ccc34)cn2)CCN1C(=O)c1ccc(C#N)cc1F` (mixture of isomers) [Example 161, 4-[((2R)-4-{3-cyano-2-[4-(7H-pyrrolo[2,3-d]pyrimidin-4-yl)-1H-pyrazol-1-yl]propyl}-2-methylpiperazin-1-yl)carbonyl]-3-fluorobenzonitrile] the IC50 [1, 5] was > 100 nM and the IC50 [2, 6] was 50 to 100 nM.

For `C[C@H]1CN(CC(CC#N)n2cc(-c3ncnc4[nH]ccc34)cn2)CCN1C(=O)c1ccc(C#N)cc1F` (mixture of isomers) [Example 162, 4-[((2S)-4-{3-cyano-2-[4-(7H-pyrrolo[2,3-d]pyrimidin-4-yl)-1H-pyrazol-1-yl]propyl}-2-methylpiperazin-1-yl)carbonyl]-3-fluorobenzonitrile], the IC50 [1, 5] was > 100 nM and the IC50 [2, 6] was 20 to 50 nM.

For `Cn1ccc(S(=O)(=O)N2CCN(CC(CF)n3cc(-c4ncnc5[nH]ccc45)cn3)CC2)n1` (racemic) [Example 10, (±)-4-(1-(1-fluoro-3-(4-(1-methyl-1H-pyrazol-3-ylsulfonyl)piperazin-1-yl)propan-2-yl)-1H-pyrazol-4-yl)-7H-pyrrolo[2,3-d]pyrimidine], the IC50 ([1]; Examples 1-11, read-out: IC50 (nM) @ 1 mM ATP JAK2) was > 20 nM and the IC50 ([2]; Examples 1-11, read-out: IC50 (nM) @ 1 mM ATP JAK1) was < 10 nM.

`C[C@@H]1CN(C(=O)c2ccc(C#N)cc2F)CCN1CC(CC#N)n1cc(-c2ncnc3[nH]ccc23)cn1` (single isomer, unassigned) [24, R-1] was tested, and the IC50 [1, 3] was > 100 nM and the IC50 [2, 4] was < 10 nM.

In the case of `C[C@@H]1CN(C(=O)c2ccc(C#N)cc2F)CCN1CC(CC#N)n1cc(-c2ncnc3[nH]ccc23)cn1` (single isomer, unassigned) [24, R-2], the IC50 [1, 3] is reported as > 100 nM and the IC50 [2, 4] is reported as > 100 nM.

`C[C@H]1CN(C(=O)c2ccc(C#N)cc2F)CCN1CC(CC#N)n1cc(-c2ncnc3[nH]ccc23)cn1` (single isomer, unassigned) [25, S-1] was tested, and the IC50 [1, 3] was > 100 nM and the IC50 [2, 4] was > 100 nM.

With `C[C@H]1CN(C(=O)c2ccc(C#N)cc2F)CCN1CC(CC#N)n1cc(-c2ncnc3[nH]ccc23)cn1` (single isomer, unassigned) [25, S-2] the IC50 [1, 3] was > 100 nM and the IC50 [2, 4] was < 10 nM.

In the case of `N#CCC(CN1CCN(C(=O)c2ccc(C#N)cc2F)CC1CO)n1cc(-c2ncnc3[nH]ccc23)cn1` (single isomer, unassigned) [156—peak 1, 4-{[4-{3-cyano-2-[4-(7H-pyrrolo[2,3-d]pyrimidin-4-yl)-1H-pyrazol-1-yl]propyl}-3-(hydroxymethyl)piperazin-1-yl]carbonyl}-3-fluorobenzonitrile trifluoroacetate Salt], the IC50 [1, 5] is reported as > 100 nM and the IC50 [2, 6] is reported as < 20 nM.

With `N#CCC(CN1CCN(C(=O)c2ccc(C#N)cc2F)CC1CO)n1cc(-c2ncnc3[nH]ccc23)cn1` (single isomer, unassigned) [156—peak 2, 4-{[4-{3-cyano-2-[4-(7H-pyrrolo[2,3-d]pyrimidin-4-yl)-1H-pyrazol-1-yl]propyl}-3-(hydroxymethyl)piperazin-1-yl]carbonyl}-3-fluorobenzonitrile trifluoroacetate Salt] the IC50 [1, 5] was > 100 nM and the IC50 [2, 6] was > 100 nM.

In the case of `N#CCC(CN1CCN(C(=O)c2ccc(C#N)cc2F)CC1CO)n1cc(-c2ncnc3[nH]ccc23)cn1` (single isomer, unassigned) [156—peak 3, 4-{[4-{3-cyano-2-[4-(7H-pyrrolo[2,3-d]pyrimidin-4-yl)-1H-pyrazol-1-yl]propyl}-3-(hydroxymethyl)piperazin-1-yl]carbonyl}-3-fluorobenzonitrile trifluoroacetate Salt], the IC50 [1, 5] is reported as > 100 nM and the IC50 [2, 6] is reported as 50 to 100 nM.

For `N#CCC(CN1CCN(C(=O)c2ccc(C#N)cc2F)CC1CO)n1cc(-c2ncnc3[nH]ccc23)cn1` (single isomer, unassigned) [156—peak 4, 4-{[4-{3-cyano-2-[4-(7H-pyrrolo[2,3-d]pyrimidin-4-yl)-1H-pyrazol-1-yl]propyl}-3-(hydroxymethyl)piperazin-1-yl]carbonyl}-3-fluorobenzonitrile trifluoroacetate Salt], the IC50 [1, 5] was > 100 nM and the IC50 [2, 6] was > 100 nM.

`N#CCC(CN1CCN(C(=O)c2ccc(C#N)cc2F)CC1)n1cc(-c2ncnc3[nH]ccc23)cn1` (single isomer, unassigned) [Example 12, 4-[(4-{3-cyano-2-[4-(7H-pyrrolo[2,3-d]pyrimidin-4-yl)-1H-pyrazol-1-yl]propyl}piperazin-1-yl)carbonyl]-3-fluorobenzonitrile trifluoroacetate Salt] was tested, and the IC50 [1, 3] was 50 to 100 nM and the IC50 [2, 4] was < 10 nM.

`N#CCC(CN1CCN(C(=O)c2ccc(C#N)cc2F)CC1)n1ccc(-c2ncnc3[nH]ccc23)c1` (single isomer, unassigned) [Example 13, 4-[(4-{3-cyano-2-[3-(7H-pyrrolo[2,3-d]pyrimidin-4-yl)-1H-pyrrol-1-yl]propyl}piperazin-1-yl)carbonyl]-3-fluorobenzonitrile trifluoroacetate Salt] was tested, and the IC50 [1, 3] was 50 to 100 nM and the IC50 [2, 4] was < 10 nM.

For `COCC1CN(C(=O)c2ccc(C#N)cc2F)CCN1CC(CC#N)n1cc(-c2ncnc3[nH]ccc23)cn1` (single isomer, unassigned) [Example 157—peak 1, 4-{[4-{3-cyano-2-[4-(7H-pyrrolo[2,3-d]pyrimidin-4-yl)-1H-pyrazol-1-yl]propyl}-3-(methoxymethyl)piperazin-1-yl]carbonyl}-3-fluorobenzonitrile], the IC50 [1, 5] was > 100 nM and the IC50 [2, 6] was > 100 nM.

`COCC1CN(C(=O)c2ccc(C#N)cc2F)CCN1CC(CC#N)n1cc(-c2ncnc3[nH]ccc23)cn1` (single isomer, unassigned) [Example 157—peak 2, 4-{[4-{3-cyano-2-[4-(7H-pyrrolo[2,3-d]pyrimidin-4-yl)-1H-pyrazol-1-yl]propyl}-3-(methoxymethyl)piperazin-1-yl]carbonyl}-3-fluorobenzonitrile] was tested, and the IC50 [1, 5] was > 100 nM and the IC50 [2, 6] was < 20 nM.

For `COCC1CN(C(=O)c2ccc(C#N)cc2F)CCN1CC(CC#N)n1cc(-c2ncnc3[nH]ccc23)cn1` (single isomer, unassigned) [Example 157—peak 3, 4-{[4-{3-cyano-2-[4-(7H-pyrrolo[2,3-d]pyrimidin-4-yl)-1H-pyrazol-1-yl]propyl}-3-(methoxymethyl)piperazin-1-yl]carbonyl}-3-fluorobenzonitrile], the IC50 [1, 5] was > 100 nM and the IC50 [2, 6] was > 100 nM.

With `N#CCC(CN1CCN(C(=O)c2ccc(C#N)cc2F)CC1CF)n1cc(-c2ncnc3[nH]ccc23)cn1` (single isomer, unassigned) [Example 158, 4-[(4-{3-cyano-2-[4-(7H-pyrrolo[2,3-d]pyrimidin-4-yl)-1H-pyrazol-1-yl]propyl}-3-fluoromethylpiperazin-1-yl)carbonyl]-3-fluorobenzonitrile] the IC50 [1, 5] was > 100 nM and the IC50 [2, 6] was < 20 nM.

`N#CCC(CN1CCN(C(=O)c2ccc(C#N)cc2F)CC1C(F)F)n1cc(-c2ncnc3[nH]ccc23)cn1` (single isomer, unassigned) [Example 159—peak 1, 4-{[4-{3-cyano-2-[4-(7H-pyrrolo[2,3-d]pyrimidin-4-yl)-1H-pyrazol-1-yl]propyl}-3-(difluoromethyl)piperazin-1-yl]carbonyl}-3-fluorobenzonitrile] was tested, and the IC50 [1, 5] was > 100 nM and the IC50 [2, 6] was > 100 nM.

Compound `N#CCC(CN1CCN(C(=O)c2ccc(C#N)cc2F)CC1C(F)F)n1cc(-c2ncnc3[nH]ccc23)cn1` (single isomer, unassigned) [Example 159—peak 2, 4-{[4-{3-cyano-2-[4-(7H-pyrrolo[2,3-d]pyrimidin-4-yl)-1H-pyrazol-1-yl]propyl}-3-(difluoromethyl)piperazin-1-yl]carbonyl}-3-fluorobenzonitrile] has an IC50 [1, 5] of 50 to 100 nM and an IC50 [2, 6] of 50 to 100 nM.

For `N#CCC(CN1CCN(C(=O)c2ccc(C#N)cc2F)CC1C(F)F)n1cc(-c2ncnc3[nH]ccc23)cn1` (single isomer, unassigned) [Example 159—peak 3, 4-{[4-{3-cyano-2-[4-(7H-pyrrolo[2,3-d]pyrimidin-4-yl)-1H-pyrazol-1-yl]propyl}-3-(difluoromethyl)piperazin-1-yl]carbonyl}-3-fluorobenzonitrile], the IC50 [1, 5] was 20 to 50 nM and the IC50 [2, 6] was < 20 nM.
